Test results reported in ChEMBL document CHEMBL1126200, “Design and synthesis of novel FKBP inhibitors” (J Med Chem, 1992).
Non-standard residues stand in square brackets, D forms with d. Residues, ends and D or L forms follow the SMILES beside them. *: point of attachment. Pip = O=C(O)[C@@H]1CCCCN1; Cbz = O=C(OCc1ccccc1)*

experiment: The compound was tested for the inhibitory activity of FK506 binding protein; set-up: species or system Homo sapiens

| Structure (SMILES) | IC50 [µM] |
| --- | --- |
| COc1cccc(C(=O)CN2CCCC[C@H]2C(=O)N[C@@H](CCc2ccccc2)C(=O)OC(C)C)c1 | > 100 |
| CC(C)[C@H](NC(=O)[C@H](Cc1ccccc1)NC(=O)[C@@H]1CCCCN1CC(=O)c1ccc2ccccc2c1)C(=O)N[C@@H](Cc1ccccc1)C(=O)N[C@H](C)c1ccccc1 | 65 |
| C[C@@H](/C=C/c1ccc(C(=O)CN2CCCC2C(=O)NC(Cc2ccccc2)C(=O)OC(C)(C)C)s1)CO[Si](C)(C)C(C)(C)C (stereo not given in full) | 60 |
| CC(C)(C)OC(=O)N[C@@H](CC1CCCCC1)C(=O)CN1CCCC1C(=O)NC(Cc1ccccc1)C(=O)OC(C)(C)C (stereo not given in full) | > 100 |
| CC(C)[C@H](NC(=O)[C@H](Cc1ccccc1)NC(=O)[C@@H]1CCCCN1CC(=O)c1ccc2ccccc2c1)C(=O)N[C@@H](Cc1ccccc1)C(=O)OC(C)(C)C | 13 |
| COc1cccc(C(=O)CN2CCCC[C@H]2C(=O)N[C@@H](CC2CCCCC2)C(=O)OC(C)(C)C)c1 | 91 |
| COc1cccc(C(=O)CN2CCCC[C@H]2C(=O)N[C@H](C(=O)OC(C)(C)C)c2cccs2)c1 | 23 |
| COC(=O)[C@H](Cc1ccccc1)NC(=O)[C@@H](NC(=O)[C@H](Cc1ccccc1)NC(=O)[C@@H]1CCCCN1CC(=O)c1ccc2ccccc2c1)C(C)C | 0.3 |
| COc1cccc(C(=O)CN2CCCC[C@H]2C(=O)N[C@H](Cc2ccccc2)C(=O)OC(C)(C)C)c1 | 81 |
| C=CCCC(NC(=O)[C@H](Cc1ccccc1)NC(=O)[C@@H]1CCCCN1CC(=O)c1cccc(OC)c1)C(=O)OC(C)(C)C (stereo not given in full) | 12 |
| COc1cccc(C(=O)CN2CCCC[C@H]2C(=O)N[C@@H](CCC2CCCCC2)C(=O)OC(C)C)c1 | > 100 |
| CCC(C)[C@H](NC(=O)[C@@H]1CCCCN1CC(=O)c1cccc(OC)c1)C(=O)OC(C)(C)C (stereo not given in full) | 8 |
| COc1cccc(C(=O)CN2CCCC[C@H]2C(=O)N[C@@H](Cc2ccccc2)C(=O)N[C@H](/C=C/C2CCCC(=O)O2)C(C)C)c1 (stereo not given in full) | 42 |
| COc1cccc(C(=O)CN2CCCC2C(=O)NC(Cc2ccccc2)C(=O)OC(C)(C)C)c1 (stereo not given) | 12 |
| COc1cccc(C(=O)CN2CCCC[C@H]2C(=O)N[C@@H](Cc2ccccc2)C(=O)N[C@H](/C=C/COC(=O)C(F)(F)F)C(C)C)c1 | 1 |
| C[C@@H](/C=C/c1ccc(C(=O)C(=O)N2CCCC2C(=O)NC(Cc2ccccc2)C(=O)OC(C)(C)C)s1)CO (stereo not given in full) | 120 |
| COc1cccc(C(=O)CN2CCCC[C@H]2C(=O)N[C@@H](Cc2ccccc2)C(=O)N[C@H](C(=O)N[C@@H](Cc2ccccc2)C(=O)N[C@@H](C)c2ccccc2)C(C)C)c1 | 59 |
| COc1cccc(C(=O)CN2CCCC[C@H]2C(=O)N[C@@H](Cc2ccccc2)C(=O)N[C@H](/C=C/I)C(C)C)c1 | 2 |
| COc1cccc(C(=O)CN2CCCC[C@H]2C(=O)N[C@@H](Cc2ccccc2)C(=O)NC(Cc2ccccc2)C(=O)OC(C)(C)C)c1 (stereo not given in full) | 40 |
| CCC(C)C(NC(=O)[C@H](Cc1ccccc1)NC(=O)[C@@H]1CCCCN1CC(=O)c1cccc(OC)c1)C(=O)OC(C)(C)C (stereo not given in full) | 6 |
| COc1cccc(C(=O)CN2CCCC[C@H]2C(=O)N[C@@H](Cc2ccccc2)C(=O)N[C@H](C(=O)N[C@@H](Cc2ccccc2)C(=O)N[C@H](C)c2ccccc2)C(C)C)c1 | 85 |
| COc1cccc(C(=O)CN2CCCC[C@H]2C(=O)N[C@@H](Cc2ccccc2)C(=O)NC(C(=O)OC(C)(C)C)C(C)C)c1 (stereo not given in full) | 3 |
| COc1cccc(C(=O)CN2CCCC[C@H]2C(=O)N[C@@H](Cc2ccccc2)C(=O)N[C@H](/C=C/COC(=O)c2ccccc2)C(C)C)c1 | 62 |
| C[C@@H](/C=C/c1ccc(C(=O)C(=O)N2CCCC[C@H]2C(=O)NC(Cc2ccccc2)C(=O)OC(C)(C)C)s1)CO (stereo not given in full) | 9 |
| COC1CCCC(C(=O)CN2CCCC2C(=O)NC(Cc2ccccc2)C(=O)OC(C)(C)C)C1 (stereo not given) | > 100 |
| COc1cccc(C(=O)CN2CCCC[C@H]2C(=O)N[C@@H](Cc2ccc([N+](=O)[O-])cc2)C(=O)OC(C)(C)C)c1 | 27 |
| COc1cccc(C(=O)CN2CCCC[C@H]2C(=O)N[C@@H](Cc2ccccc2)C(=O)N[C@H](C(=O)N[C@@H](Cc2ccccc2)C(=O)O[C@H](C)c2ccccc2)C(C)C)c1 | 23 |
| COc1cccc(C(=O)CN2CCCC[C@H]2C(=O)N[C@@H](Cc2ccccc2)C(=O)N[C@H](C(=O)N[C@@H](Cc2ccccc2)C(=O)O[C@@H](C)c2ccccc2)C(C)C)c1 | 56 |

| Structure (SMILES) | IC50 [µM] |
| --- | --- |
| CC(C)(C)OC(=O)C(CC1CCCCC1)NC(=O)[C@H](Cc1ccccc1)NC(=O)[C@@H]1CCCCN1CC(=O)c1ccc2ccccc2c1 (stereo not given in full) | 35 |
| COc1cccc(C(=O)CN2CCCC[C@H]2C(=O)N[C@@H](Cc2ccccc2)C(=O)N[C@H](C(=O)N[C@@H](Cc2ccccc2)C(=O)OC(C)(C)C)C(C)C)c1 | 20 |
| C=CCOC/C=C/[C@@H](NC(=O)[C@H](Cc1ccccc1)NC(=O)[C@@H]1CCCCN1CC(=O)c1cccc(OC)c1)C(C)C | 3 |
| CC(C)[C@H](NC(=O)[C@H](Cc1ccccc1)NC(=O)[C@@H]1CCCCN1CC(=O)c1ccc2ccccc2c1)C(=O)N[C@@H](Cc1ccccc1)C(=O)N[C@H](C)c1cccc2ccccc12 | 75 |
| C[C@@H](/C=C/c1ccc(C(=O)C(=O)N2CCCC2C(=O)OC(C)(C)C)s1)CO[Si](C)(C)C(C)(C)C (stereo not given in full) | > 100 |
| C[C@@H](/C=C/c1ccc(C(=O)C(=O)N2CCCC2C(=O)NC(Cc2ccccc2)C(=O)OC(C)(C)C)s1)CO[Si](C)(C)C(C)(C)C (stereo not given in full) | > 100 |
| CC(=O)OC/C=C/[C@@H](NC(=O)[C@H](Cc1ccccc1)NC(=O)[C@@H]1CCCCN1CC(=O)c1ccc2ccccc2c1)C(C)C | 18 |
| COc1cccc(C(=O)CN2CCCC[C@H]2C(=O)N[C@@H](Cc2ccccc2)C(=O)N[C@H](/C=C/COC(C)=O)C(C)C)c1 | 2 |
| COc1cccc(C(=O)CN2CCCC[C@H]2C(=O)N[C@H](C(=O)OC(C)(C)C)c2ccsc2)c1 | 22 |
| COc1cccc(C(=O)CN2CCCC[C@H]2C(=O)N[C@@H](Cc2ccccc2)C(=O)N[C@H](/C=C/[C@@H](C)CC(C)=O)C(C)C)c1 | 10 |
| COc1cccc(C(=O)CN2CCCC[C@H]2C(=O)N[C@@H](Cc2ccccc2)C(=O)NC(CC2CCCCC2)C(=O)OC(C)(C)C)c1 (stereo not given in full) | 70 |
| CC(C)[C@@H](/C=C/C(=O)N[C@@H](C)c1ccccc1)NC(=O)[C@H](Cc1ccccc1)NC(=O)[C@@H]1CCCCN1CC(=O)c1ccc2ccccc2c1 | 35 |
| COc1cccc(C(=O)CN2CCCC[C@H]2C(=O)N[C@@H](Cc2ccccc2)C(=O)N[C@H](/C=C/C2CCC(=O)C2)C(C)C)c1 (stereo not given in full) | 11 |
| COc1cccc(C(=O)CN2CCCC[C@H]2C(=O)N[C@@H](Cc2ccccc2)C(=O)NC(CC(C)C)C(=O)OC(C)(C)C)c1 (stereo not given in full) | 3 |
| COc1cccc(C(=O)CN2CCCC[C@H]2C(=O)N[C@@H](Cc2ccccc2)C(=O)N[C@H](/C=C/C(=O)N[C@@H](C)c2ccccc2)C(C)C)c1 | 40 |
| CC(C)C(NC(=O)[C@H](Cc1ccccc1)NC(=O)[C@@H]1CCCCN1CC(=O)c1ccc2ccccc2c1)C(=O)OC(C)(C)C (stereo not given in full) | 1 |
| COc1cccc(C(=O)CN2CCCC[C@H]2C(=O)N[C@@H](Cc2ccccc2)C(=O)OC(C)(C)C)c1 | 3 |
| C[C@@H](/C=C/c1ccc(C(=O)C(=O)N2CCCC2C(=O)OC(C)(C)C)s1)CO (stereo not given in full) | > 100 |
| COc1cccc(C(=O)CN2CCCC[C@H]2C(=O)N[C@@H](Cc2ccccc2)C(=O)N[C@H](C(=O)N[C@@H](Cc2ccccc2)C(=O)N[C@H](C)c2cccc3ccccc23)C(C)C)c1 | 30 |
| COc1cccc(C(=O)CN2CCCC[C@H]2C(=O)N[C@@H](Cc2ccccc2)C(=O)NC(CCCCNC(=O)OCc2ccccc2)C(=O)OCc2ccccc2)c1 (stereo not given in full) | > 100 |
| COc1cccc(C(=O)CN2CCCC[C@H]2C(=O)N[C@@H](Cc2ccccc2)C(=O)N[C@H](C(=O)Cc2ccccc2)C(C)C)c1 | 14 |
| CCOC(=O)/C=C/[C@@H](NC(=O)[C@H](Cc1ccccc1)NC(=O)[C@@H]1CCCCN1CC(=O)c1cccc(OC)c1)C(C)C | 15 |
| COC(=O)[C@H](Cc1ccccc1)NC(=O)[C@@H](NC(=O)[C@H](Cc1ccccc1)NC(=O)[C@@H]1CCCCN1CC(=O)c1ccc(-c2ccccc2)cc1)C(C)C | 26 |
| COC(=O)[C@H](Cc1ccccc1)NC(=O)[C@@H](NC(=O)[C@H](Cc1ccccc1)NC(=O)[C@@H]1CCCCN1CC(=O)c1cccc(OC)c1)C(C)C | 1 |
| COc1cccc(C(=O)CN2CCCC[C@H]2C(=O)N[C@H](C(=O)OC(C)(C)C)C(C)C)c1 | 83 |
| COC(=O)[C@H](Cc1ccccc1)NC(=O)[C@@H](NC(=O)[C@H](Cc1ccccc1)NC(=O)[C@@H]1CCCCN1C(=O)OCc1ccccc1)C(C)C (Cbz-[Pip]FVF-OMe) | > 100 |
| COC(=O)[C@H](Cc1ccccc1)NC(=O)[C@@H](NC(=O)[C@H](Cc1ccccc1)NC(=O)[C@@H]1CCCCN1)C(C)C (H-[Pip]FVF-OMe) | > 100 |
